According to patent US4363812A, “3-(Tetrazol-5-yl), 4-methyl-8-alkoxy coumarins and anti-allergic compositions thereof” (priority 1978, dated 1982):
Where a name gives a salt, the structure may show the parent alone. Read-outs that look alike come from different tables or passages of the source.

Columns and labels:
[1] = tested on: passive cutaneous anaphylaxis (PCA) mediated by homocytotropic antibodies (HTA); assay: passive cutaneous anaphylaxis (PCA) test, oral, in rats; type: in vivo, rat (Wistar); conditions: for minimal effective dose: Rattus norvegicus
Protocol: With respect to the present 3-(1H-tetrazol-5-yl)coumarin derivatives, there was tested antiallergic activity concerning passive cutaneous anaphylaxis (PCA) mediated by homocytotropic antibodies (HTA) in rats.
(i) Preparation of antisera
2,4-Dinitrophenyl-coupled ascaris extract (DNP-As) used as antigen, was prepared according to the methods of Strejan et al [cf. J. Immunol., Vol. 98, 893(1967)] and Eisen [cf. J. Amer. Chem. Soc., Vol. 75. 4593(1953)]. Antisera containing HTA were prepared in rats according to the method of Tada and Okumura [cf. J. Immunol., Vol. 106, 1002(1971)] as follows:
Female wister rats weighing 180 to 200 g. were splenectomized and several days later immunized by injecting into all four footpads a total of 1 mg. of DNP-As mixed with 10^10 Bordetella pertussis. After 5 days, 0.5 mg. of DNP-As alone was injected subcutaneously into the back of rats. Eight days after the first immunization, blood was collected by aortic puncture under ether anaesthesea and antisera obtained by these procedures were pooled and stored at -80° C.
The titer of the pooled autiserum was determined in rats by the 72 hr. PCA which method was described in the following item (ii), i.e. the highest dilution of antiserum producing a diameter of approximately 5 mm. was usually 1:500.
(ii) Assessment of PCA in rats
Normal wister rats weighing 140 to 160 g. were sensitized passively by injection intradermal on the shaved back skin 0.05 ml. of the diluted antisera (1:30). After 72 hours, the animals were injected intravenously 1 ml. of physiological salt solution containing 2 mg. DNP-As and 2.5 mg. Evans' blue.
The present compounds to be tested were given orally 30 minutes before antigen challenge. The animals were exsanguinated 30 minutes after challenge with the antigens and the skins were exfoliated. The intensities of PCA were evaluated by measuring the amount of leaked dye. The amount of dye leaked as a result of PCA was extracted according to the method of Harada et al [cf. Jpn. J. Allergol., Vol. 15, 1(1966)] and measured photometrically.

[2] = tested on: mice; assay: acute toxicity, oral, in mice; type: in vivo; conditions: Table 4; oral, female Slc: ddy mice, 6 days observation, Litchfield-Wilcoxon; 8640 min
Protocol: (§1) Moreover, the introduction of substituent groups such as an alkoxyl group, an alkenyloxy group and hydroxyl group to the 5, 6, 7 or 8 position of the coumarin ring brings the decrease of toxicity.
(§2) With respect to the present 3-(1H-tetrazol-5-yl)coumarin derivatives, there was tested acute toxicity in mice.
(§3) After normal female Slc: ddy mice 4 weeks old were purchased and fed preliminarily in this lavoratory for a week, these mice weighing 25-27 g. were used in the test. The present compounds to be tested, were suspended in a 10% gum arabic solution and administered orally […]. body weight to mice. Each dose level was given to a group of ten animals and the survivors were kept under observation for 6 days. The numbers of dead animals were counted and the LD50 values in mg./kg. body weight were calculated by the method of Litchfield-Wilcoxon.

[3] = acute toxicity, oral, in mice; type: in vivo; conditions: mouse, in vivo, po
Protocol: as §1, §2, §3

[4] = antiallergic activity (general statement); conditions: compared with coumarin derivatives of Japanese Publication No. 64273/1975
[5] = tested on: experimental asthma; assay: model of experimental asthma in animals; type: in vivo; conditions: oral administration
[6] = Table 3, oral 30 minutes before antigen challenge, rats, lowest dose significantly decreasing leaked dye vs control, read-out: MED (minimum effect dose)
[7] = Table 4, oral, female Slc: ddy mice, 6 days observation, Litchfield-Wilcoxon, read-out: LD50
[8] = po, read-out: MED (minimum effective dose)
[9] = read-out: MED (minimum effect dose)
[10] = LD50 (50% lethal dose), Table 1, orally in mice

| SMILES | minimal effective dose [1, 6] [mg/kg] | LD50 at 144 h [3, 7] [mg/kg] | further results |
| --- | --- | --- | --- |
| CCCCOc1cccc2cc(-c3nnn[nH]3)c(=O)oc12 [Example 31, Sodium salt of 8-n-butoxy-3-(1H-tetrazol-5-yl)coumarin] |  |  | MED (minimum effect dose) ([1]; Table 3, oral 30 minutes before antigen challenge, rats, lowest dose significantly decreasing leaked dye vs control): 1.56 mg/kg; LD50 [2]: 2470 mg/kg |
| CCOc1cc(OCC)c2cc(-c3nnn[nH]3)c(=O)oc2c1 [Example 30, 5,7-Diethoxy-3-(1H-tetrazol-5-yl)coumarin] | 12.5 | 2000 to 3000 |  |
| CC(C)CCOc1cccc2cc(-c3nnn[nH]3)c(=O)oc12 [Example 9, 8-Isopentyloxy-3-(1H-tetrazol-5-yl)coumarin] | 0.39 | 1000 to 2000 |  |
| CC(C)=CCCC(C)=CCCC(C)=CCOc1cccc2cc(-c3nnn[nH]3)c(=O)oc12 [Example 18, 8-Farnesyloxy-3-(1H-tetrazol-5-yl)coumarin] | 6.25 | 1000 to 2000 |  |
| CC(C)Oc1cccc2cc(-c3nnn[nH]3)c(=O)oc12 [Example 6, 8-Isopropoxy-3-(1H-tetrazol-5-yl)coumarin] |  | 2250 | minimal effective dose [1, 8]: 1.56 mg/kg; minimal effective dose [1, 9]: 1.56 mg/kg; LD50 at 144 h [3, 10]: 2250 mg/kg |
| CCCOc1cccc2cc(-c3nnn[nH]3)c(=O)oc12 [Example 5, 8-n-Propoxy-3-(1H-tetrazol-5-yl)coumarin] | 6.25 | 2000 to 3000 |  |
| O=c1oc2c(O)cccc2cc1-c1nnn[nH]1 [Example 19, 8-Hydroxy-3-(1H-tetrazol-5-yl)coumarin] | 25 | 2000 to 3000 |  |
| CCOc1cc2oc(=O)c(-c3nnn[nH]3)cc2cc1CC=C(C)C [Example 29, 7-Ethoxy-6-(3-methyl-2-butenyl)-3-(1H-tetrazol-5-yl)coumarin] | 12.5 | 500 to 1000 |  |
| CCc1cc2cc(-c3nnn[nH]3)c(=O)oc2cc1OC [Example 23, 6-Ethyl-7-methoxy-3-(1H-tetrazol-5-yl)coumarin] | 1.56 | 500 to 1000 |  |
| O=c1oc2ccccc2cc1-c1nnn[nH]1 |  |  | antiallergic activity [4]: stronger antiallergic activity |
| CCCCOc1cccc2cc(-c3nnn[nH]3)c(=O)oc12 [Example 8, 8-n-Butoxy-3-(1H-tetrazol-5-yl)coumarin] |  | 2380 | minimal effective dose [1, 8]: 1.56 mg/kg; minimal effective dose [1, 9]: 1.56 mg/kg; LD50 at 144 h [3, 10]: 2380 mg/kg |
| CCOc1cccc2cc(-c3nnn[nH]3)c(=O)oc12 [Example 4, 8-Ethoxy-3-(1H-tetrazol-5-yl)coumarin] |  | 2500 | minimal effective dose [1, 8]: 6.25 mg/kg; minimal effective dose [1, 9]: 6.25 mg/kg; LD50 at 144 h [3, 10]: 2500 mg/kg |
| Cc1ccc2oc(=O)c(-c3nnn[nH]3)c(C)c2c1 [J, reference compound] |  |  | minimal effective dose [1, 8]: 25 mg/kg; LD50 at 144 h [3, 10]: 533 mg/kg |
| CCCCCOc1cccc2cc(-c3nnn[nH]3)c(=O)oc12 [Example 1, 8-n-Pentyloxy-3-(1H-tetrazol-5-yl)coumarin] |  | 1330 | minimal effective dose [1, 8]: 1.56 mg/kg; minimal effective dose [1, 9]: 1.56 mg/kg; LD50 at 144 h [3, 10]: 1330 mg/kg |
| CCOc1cc(C)cc2cc(-c3nnn[nH]3)c(=O)oc12 [Example 20, 8-Ethoxy-6-methyl-3-(1H-tetrazol-5-yl)coumarin] |  | 2360 | minimal effective dose [1, 8]: 1.56 mg/kg; minimal effective dose [1, 9]: 1.56 mg/kg; LD50 at 144 h [3, 10]: 2360 mg/kg |
| COc1ccc2cc(-c3nnn[nH]3)c(=O)oc2c1C [Example 24, 7-Methoxy-8-methyl-3-(1H-tetrazol-5-yl)coumarin] | 6.25 | 300 to 1000 |  |
| CCCOc1cc(C)cc2cc(-c3nnn[nH]3)c(=O)oc12 [Example 21, 6-Methyl-8-n-propoxy-3-(1H-tetrazol-5-yl)coumarin] | 1.56 | 1000 to 2000 |  |

| SMILES | minimal effective dose [1, 6] [mg/kg] | LD50 at 144 h [3, 7] [mg/kg] | further results |
| --- | --- | --- | --- |
| COc1cc2cc(-c3nnn[nH]3)c(=O)oc2cc1C [Example 25, 6-Methoxy-7-methyl-3-(1H-tetrazol-5-yl)coumarin] | 12.5 | 500 to 1000 |  |
| CCCCCCOc1cccc2cc(-c3nnn[nH]3)c(=O)oc12 [Example 10, 8-n-Hexyloxy-3-(1H-tetrazol-5-yl)coumarin] |  | 2650 | minimal effective dose [1, 8]: 1.56 mg/kg; minimal effective dose [1, 9]: 1.56 mg/kg; LD50 at 144 h [3, 10]: 2650 mg/kg; therapeutic effect in experimental asthma [5]: shows a therapeutic effect |
| C=CCOc1cccc2cc(-c3nnn[nH]3)c(=O)oc12 [Example 16, 8-Allyloxy-3-(1H-tetrazol-5-yl)coumarin] | 1.56 | 2000 to 3000 |  |
| CC(C)=CCC/C(C)=C/COc1cccc2cc(-c3nnn[nH]3)c(=O)oc12 [Example 17, 8-Geranyloxy-3-(1H-tetrazol-5-yl)coumarin] | 6.25 | 500 to 1000 |  |
| Cc1cc(O)c2oc(=O)c(-c3nnn[nH]3)cc2c1 [Example 27, 8-Hydroxy-6-methyl-3-(1H-tetrazol-5-yl)coumarin] | 12.5 | 2000 to 3000 |  |
| CCCOc1ccc2cc(-c3nnn[nH]3)c(=O)oc2c1 [Example 7, 7-n-Propoxy-3-(1H-tetrazol-5-yl)coumarin] | 6.25 | 2000 to 3000 |  |
| COc1cc2oc(=O)c(-c3nnn[nH]3)cc2cc1CC=C(C)C [Example 28, 7-Methoxy-6-(3-methyl-2-butenyl)-3-(1H-tetrazol-5-yl)coumarin] | 1.56 | 500 to 1000 |  |
| CCCCCCCOc1cccc2cc(-c3nnn[nH]3)c(=O)oc12 [Example 11, 8-n-Heptyloxy-3-(1H-tetrazol-5-yl)coumarin] | 1.56 | 2000 to 3000 |  |
| CCCCOc1cc(C)cc2cc(-c3nnn[nH]3)c(=O)oc12 [Example 2, 8-n-Butoxy-6-methyl-3-(1H-tetrazol-5-yl)coumarin] |  | 1870 | minimal effective dose [1, 8]: 0.39 mg/kg; minimal effective dose [1, 9]: 0.39 mg/kg; LD50 at 144 h [3, 10]: 1870 mg/kg |
| CCCCCCCCCCCCCCCOc1cccc2cc(-c3nnn[nH]3)c(=O)oc12 [Example 14, 8-n-Pentadecyloxy-3-(1H-tetrazol-5-yl)coumarin] | 6.25 | 2000 to 3000 |  |
| Cc1cc(OC(C)C)c2oc(=O)c(-c3nnn[nH]3)cc2c1 [Example 22, 8-Isopropoxy-6-methyl-3-(1H-tetrazol-5-yl)coumarin] |  | 2200 | minimal effective dose [1, 8]: 1.56 mg/kg; minimal effective dose [1, 9]: 1.56 mg/kg; LD50 at 144 h [3, 10]: 2200 mg/kg |
| Cc1c(-c2nnn[nH]2)c(=O)oc2c(Cl)cccc12 [Compound I, reference compound] |  |  | minimal effective dose [1, 8]: 6.25 mg/kg; LD50 at 144 h [3, 10]: 1040 mg/kg |
| C=CCOc1cc(C)cc2cc(-c3nnn[nH]3)c(=O)oc12 [Example 26, 8-Allyloxy-6-methyl-3-(1H-tetrazol-5-yl)coumarin] | 1.56 | 2000 to 3000 |  |
| COc1cccc2cc(-c3nnn[nH]3)c(=O)oc12 [Example 3, 8-Methoxy-3-(1H-tetrazol-5-yl)coumarin] | 6.25 | 2000 to 3000 |  |
| CCCCCCCCCCCCOc1cccc2cc(-c3nnn[nH]3)c(=O)oc12 [Example 13, 8-n-Dodecyloxy-3-(1H-tetrazol-5-yl)coumarin] | 6.25 | 2000 to 3000 |  |
| CCCCCCCCCCCCCCCCCCOc1cccc2cc(-c3nnn[nH]3)c(=O)oc12 [Example 15, 8-n-Octadecyloxy-3-(1H-tetrazol-5-yl)coumarin] | 6.25 | 2000 to 3000 |  |
| CCCCCCCCCOc1cccc2cc(-c3nnn[nH]3)c(=O)oc12 [Example 12, 8-n-Nonyloxy-3-(1H-tetrazol-5-yl)coumarin] | 6.25 | 2000 to 3000 |  |
